Assay results as given in the supplement of paper PMC10307832.

What was measured:
Assay in all cases: relative viability (nuclei count vs DMSO), 5 days (fraction); higher = more cells survive
NCI-H1395 = test system: NCI-H1395
Method in brief: (§1)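 One day after seeding in 1536-well plates, lung cancer cell lines were dosed by pin tool. Dosing was either single-drug or a fixed anchor-drug dose plus five library-drug doses (not always all listed) in √10 steps. After 5 days, nuclei were stained in one fix-and-stain step and counted on 4× images, and relative viability is the nuclei count of treated wells over that of vehicle wells, given as the median of duplicate plates.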

HOP-62 = test system: HOP-62
Method in brief: as §1

A-427 = test system: A-427
Method in brief: as §1

NCI-H522 = test system: NCI-H522
Method in brief: as §1

NCI-H1792 = test system: NCI-H1792
Method in brief: as §1

NCI-H1437 = test system: NCI-H1437
Method in brief: as §1

HCC-827 = test system: HCC-827
Method in brief: as §1

CAL-12T = test system: CAL-12T
Method in brief: as §1

NCI-H1755 = test system: NCI-H1755
Method in brief: as §1

SK-LU-1 = test system: SK-LU-1
Method in brief: as §1

COR-L 105 = test system: COR-L 105
Method in brief: as §1

EMC-BAC-2 = test system: EMC-BAC-2
Method in brief: as §1

NCI-H23 = test system: NCI-H23
Method in brief: as §1

LCLC-103H = test system: LCLC-103H
Method in brief: as §1

NCI-H2228 = test system: NCI-H2228
Method in brief: as §1

HCC-366 = test system: HCC-366
Method in brief: as §1

NCI-H1915 = test system: NCI-H1915
Method in brief: as §1

SW 1573 = test system: SW 1573
Method in brief: as §1

NCI-H460 = test system: NCI-H460
Method in brief: as §1

NCI-H727 = test system: NCI-H727
Method in brief: as §1

HARA = test system: HARA
Method in brief: as §1

NCI-H2009 = test system: NCI-H2009
Method in brief: as §1

SMILES: CCN(CC)CCCCNc1ncc2cc(-c3cc(OC)cc(OC)c3)c(NC(=O)NC(C)(C)C)nc2n1 + COc1cccc2cc(-c3nc([C@H]4CC[C@H](C(=O)O)CC4)n4ncnc(N)c34)[nH]c12 [OSI-027] (partner 0.5 µM)
- relative viability (NCI-H1395; first compound 0.01 µM): 0.578
- relative viability (NCI-H1395; first compound 0.03162 µM): 0.697
- relative viability (NCI-H1395; first compound 0.1 µM): 0.745
- relative viability (NCI-H1395; first compound 0.3162 µM): 0.554
- relative viability (NCI-H1395; first compound 1 µM): 0.458
- relative viability (HOP-62; first compound 0.01 µM): 0.89
- relative viability (HOP-62; first compound 0.03162 µM): 0.873
- relative viability (HOP-62; first compound 0.1 µM): 1.12
- relative viability (HOP-62; first compound 0.3162 µM): 1.11
- relative viability (HOP-62; first compound 1 µM): 0.771
- relative viability (A-427; first compound 0.01 µM): 0.457
- relative viability (A-427; first compound 0.03162 µM): 0.435
- relative viability (A-427; first compound 0.1 µM): 0.427
- relative viability (A-427; first compound 0.3162 µM): 0.364
- relative viability (A-427; first compound 1 µM): 0.298
- relative viability (NCI-H522; first compound 0.01 µM): 0.639
- relative viability (NCI-H522; first compound 0.03162 µM): 0.625
- relative viability (NCI-H522; first compound 0.1 µM): 0.676
- relative viability (NCI-H522; first compound 0.3162 µM): 0.674
- relative viability (NCI-H522; first compound 1 µM): 0.698
- relative viability (NCI-H1792; first compound 0.01 µM): 0.602
- relative viability (NCI-H1792; first compound 0.03162 µM): 0.783
- relative viability (NCI-H1792; first compound 0.1 µM): 0.706
- relative viability (NCI-H1792; first compound 0.3162 µM): 0.723
- relative viability (NCI-H1792; first compound 1 µM): 0.523
- relative viability (NCI-H1437; first compound 0.01 µM): 0.978
- relative viability (NCI-H1437; first compound 0.03162 µM): 0.876
- relative viability (NCI-H1437; first compound 0.1 µM): 0.925
- relative viability (NCI-H1437; first compound 0.3162 µM): 0.874
- relative viability (NCI-H1437; first compound 1 µM): 0.857
- relative viability (HCC-827; first compound 0.01 µM): 0.809
- relative viability (HCC-827; first compound 0.03162 µM): 0.761
- relative viability (HCC-827; first compound 0.1 µM): 0.836
- relative viability (HCC-827; first compound 0.3162 µM): 0.95
- relative viability (HCC-827; first compound 1 µM): 0.655
- relative viability (CAL-12T; first compound 0.01 µM): 0.623
- relative viability (CAL-12T; first compound 0.03162 µM): 0.736
- relative viability (CAL-12T; first compound 0.1 µM): 0.789
- relative viability (CAL-12T; first compound 0.3162 µM): 0.836
- relative viability (CAL-12T; first compound 1 µM): 0.576
- relative viability (NCI-H1755; first compound 0.01 µM): 0.625
- relative viability (NCI-H1755; first compound 0.03162 µM): 0.77
- relative viability (NCI-H1755; first compound 0.1 µM): 0.811
- relative viability (NCI-H1755; first compound 0.3162 µM): 0.799
- relative viability (NCI-H1755; first compound 1 µM): 0.707
- relative viability (SK-LU-1; first compound 0.01 µM): 0.412
- relative viability (SK-LU-1; first compound 0.03162 µM): 0.377
- relative viability (SK-LU-1; first compound 0.1 µM): 0.33
- relative viability (SK-LU-1; first compound 0.3162 µM): 0.341
- relative viability (SK-LU-1; first compound 1 µM): 0.219
- relative viability (COR-L 105; first compound 0.01 µM): 0.704
- relative viability (COR-L 105; first compound 0.03162 µM): 0.591
- relative viability (COR-L 105; first compound 0.1 µM): 0.749
- relative viability (COR-L 105; first compound 0.3162 µM): 0.826
- relative viability (COR-L 105; first compound 1 µM): 0.417
- relative viability (EMC-BAC-2; first compound 0.01 µM): 0.38
- relative viability (EMC-BAC-2; first compound 0.03162 µM): 0.399
- relative viability (EMC-BAC-2; first compound 0.1 µM): 0.398
- relative viability (EMC-BAC-2; first compound 0.3162 µM): 0.471
- relative viability (EMC-BAC-2; first compound 1 µM): 0.358
- relative viability (NCI-H23; first compound 0.01 µM): 0.566
- relative viability (NCI-H23; first compound 0.03162 µM): 0.679
- relative viability (NCI-H23; first compound 0.1 µM): 0.738
- relative viability (NCI-H23; first compound 0.3162 µM): 0.731
- relative viability (NCI-H23; first compound 1 µM): 0.623
- relative viability (LCLC-103H; first compound 0.01 µM): 0.455
- relative viability (LCLC-103H; first compound 0.03162 µM): 0.482
- relative viability (LCLC-103H; first compound 0.1 µM): 0.456
- relative viability (LCLC-103H; first compound 0.3162 µM): 0.386
- relative viability (LCLC-103H; first compound 1 µM): 0.339
- relative viability (NCI-H2228; first compound 0.01 µM): 0.599
- relative viability (NCI-H2228; first compound 0.03162 µM): 0.505
- relative viability (NCI-H2228; first compound 0.1 µM): 0.582
- relative viability (NCI-H2228; first compound 0.3162 µM): 0.63
- relative viability (NCI-H2228; first compound 1 µM): 0.363
- relative viability (HCC-366; first compound 0.01 µM): 1.02
- relative viability (HCC-366; first compound 0.03162 µM): 1.01
- relative viability (HCC-366; first compound 0.1 µM): 1.2
- relative viability (HCC-366; first compound 0.3162 µM): 1.06
- relative viability (HCC-366; first compound 1 µM): 1.24
- relative viability (NCI-H1915; first compound 0.01 µM): 0.377
- relative viability (NCI-H1915; first compound 0.03162 µM): 0.645
- relative viability (NCI-H1915; first compound 0.1 µM): 0.775
- relative viability (NCI-H1915; first compound 0.3162 µM): 0.721
- relative viability (NCI-H1915; first compound 1 µM): 0.643
- relative viability (SW 1573; first compound 0.01 µM): 0.578
- relative viability (SW 1573; first compound 0.03162 µM): 0.693
- relative viability (SW 1573; first compound 0.1 µM): 0.839
- relative viability (SW 1573; first compound 0.3162 µM): 0.691
- relative viability (SW 1573; first compound 1 µM): 0.629
- relative viability (NCI-H460; first compound 0.01 µM): 0.879
- relative viability (NCI-H460; first compound 0.03162 µM): 0.677
- relative viability (NCI-H460; first compound 0.1 µM): 0.859
- relative viability (NCI-H460; first compound 0.3162 µM): 0.815
- relative viability (NCI-H460; first compound 1 µM): 0.291
- relative viability (NCI-H727; first compound 0.01 µM): 0.673
- relative viability (NCI-H727; first compound 0.03162 µM): 0.591
- relative viability (NCI-H727; first compound 0.1 µM): 0.623
- relative viability (NCI-H727; first compound 0.3162 µM): 0.842
- relative viability (NCI-H727; first compound 1 µM): 0.498
- relative viability (HARA; first compound 0.01 µM): 0.522
- relative viability (HARA; first compound 0.03162 µM): 0.647
- relative viability (HARA; first compound 0.1 µM): 0.429
- relative viability (HARA; first compound 0.3162 µM): 0.697
- relative viability (HARA; first compound 1 µM): 0.446
- relative viability (NCI-H2009; first compound 0.01 µM): 0.678
- relative viability (NCI-H2009; first compound 0.03162 µM): 0.669
- relative viability (NCI-H2009; first compound 0.1 µM): 0.642
- relative viability (NCI-H2009; first compound 0.3162 µM): 0.675
- relative viability (NCI-H2009; first compound 1 µM): 0.604
